In ChEMBL document CHEMBL5291721, “A preclinical secondary pharmacology resource illuminates target-adverse drug reaction associations of marketed drugs” (Nat Commun, 2023):

Columns and labels:
[1] = target: Voltage-gated inwardly rectifying potassium channel KCNH2 (Homo sapiens, UniProt Q12809); format: functional; conditions: read-out: AC50
Histamine H3 receptor = Histamine H3 receptor (Homo sapiens, UniProt Q9Y5N1)
D(1A) dopamine receptor = D(1A) dopamine receptor (Homo sapiens, UniProt P21728)
[2] = target: T1, Alpha-2A adrenergic receptor (Homo sapiens, UniProt P08913)
T1 sequence (P08913 whole entry): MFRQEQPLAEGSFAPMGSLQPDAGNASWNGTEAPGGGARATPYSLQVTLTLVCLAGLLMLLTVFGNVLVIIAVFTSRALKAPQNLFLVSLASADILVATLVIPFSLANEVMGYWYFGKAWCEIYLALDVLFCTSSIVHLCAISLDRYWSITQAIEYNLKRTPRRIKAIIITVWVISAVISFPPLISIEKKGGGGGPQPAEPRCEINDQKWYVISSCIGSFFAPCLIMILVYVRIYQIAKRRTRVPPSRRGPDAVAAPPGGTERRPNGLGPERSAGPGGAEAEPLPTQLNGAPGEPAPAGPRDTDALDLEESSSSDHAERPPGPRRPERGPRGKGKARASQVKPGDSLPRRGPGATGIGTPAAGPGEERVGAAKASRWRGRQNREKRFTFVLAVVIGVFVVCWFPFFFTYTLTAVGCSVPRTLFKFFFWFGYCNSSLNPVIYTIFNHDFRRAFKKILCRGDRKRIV

[3] = target: T2, 5-hydroxytryptamine receptor 1A (Homo sapiens, UniProt P08908)
T2 sequence (P08908 whole entry): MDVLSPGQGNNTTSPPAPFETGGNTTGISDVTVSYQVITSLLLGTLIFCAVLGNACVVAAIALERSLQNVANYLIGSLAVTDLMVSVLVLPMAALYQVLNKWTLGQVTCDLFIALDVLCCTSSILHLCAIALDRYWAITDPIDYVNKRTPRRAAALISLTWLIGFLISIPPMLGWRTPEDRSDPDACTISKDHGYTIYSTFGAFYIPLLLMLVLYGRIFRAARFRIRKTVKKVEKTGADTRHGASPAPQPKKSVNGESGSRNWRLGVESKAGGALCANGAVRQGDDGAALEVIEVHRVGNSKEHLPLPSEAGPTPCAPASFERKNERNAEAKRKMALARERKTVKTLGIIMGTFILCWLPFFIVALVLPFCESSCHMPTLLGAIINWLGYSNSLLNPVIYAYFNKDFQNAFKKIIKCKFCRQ

[4] = target: T3, Amine oxidase [flavin-containing] A (Homo sapiens, UniProt P21397); format: functional
T3 sequence (P21397 whole entry): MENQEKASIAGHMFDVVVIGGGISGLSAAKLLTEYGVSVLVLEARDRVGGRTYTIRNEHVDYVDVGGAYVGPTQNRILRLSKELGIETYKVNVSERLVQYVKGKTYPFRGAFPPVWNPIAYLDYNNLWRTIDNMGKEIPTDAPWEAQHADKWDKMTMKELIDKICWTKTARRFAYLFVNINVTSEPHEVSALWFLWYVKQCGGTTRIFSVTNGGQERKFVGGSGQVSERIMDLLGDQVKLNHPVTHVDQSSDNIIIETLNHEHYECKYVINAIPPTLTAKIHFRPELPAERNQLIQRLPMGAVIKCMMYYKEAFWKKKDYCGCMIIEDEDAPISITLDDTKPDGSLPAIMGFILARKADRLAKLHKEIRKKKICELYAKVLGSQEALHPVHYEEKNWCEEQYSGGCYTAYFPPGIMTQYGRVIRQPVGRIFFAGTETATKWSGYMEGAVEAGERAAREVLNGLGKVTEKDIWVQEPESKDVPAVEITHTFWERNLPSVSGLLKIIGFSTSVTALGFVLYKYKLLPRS

Prothrombin = Prothrombin (Homo sapiens, UniProt P00734); format: functional
[5] = target: Prostaglandin G/H synthase 1 (Homo sapiens, UniProt P23219); format: functional
Estrogen receptor = target: T4, Estrogen receptor (Homo sapiens, UniProt P03372)
T4 sequence (P03372 whole entry): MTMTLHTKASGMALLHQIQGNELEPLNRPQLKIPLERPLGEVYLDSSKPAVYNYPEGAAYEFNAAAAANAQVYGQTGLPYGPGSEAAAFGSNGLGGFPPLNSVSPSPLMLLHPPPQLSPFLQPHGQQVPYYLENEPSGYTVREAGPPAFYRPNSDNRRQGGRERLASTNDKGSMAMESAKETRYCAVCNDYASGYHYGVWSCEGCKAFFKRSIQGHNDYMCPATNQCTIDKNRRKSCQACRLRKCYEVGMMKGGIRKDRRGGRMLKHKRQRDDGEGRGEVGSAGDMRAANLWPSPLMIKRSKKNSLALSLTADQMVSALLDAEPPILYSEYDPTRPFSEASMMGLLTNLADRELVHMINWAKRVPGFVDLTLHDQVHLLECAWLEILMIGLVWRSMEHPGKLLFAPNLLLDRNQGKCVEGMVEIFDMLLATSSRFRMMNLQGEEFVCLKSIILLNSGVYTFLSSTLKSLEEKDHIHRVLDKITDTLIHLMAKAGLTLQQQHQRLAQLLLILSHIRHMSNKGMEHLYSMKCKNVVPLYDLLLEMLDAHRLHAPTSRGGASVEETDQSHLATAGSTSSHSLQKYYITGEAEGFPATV

Mu-type opioid receptor = Mu-type opioid receptor (Homo sapiens, UniProt P35372)
[6] = target: cGMP-inhibited 3',5'-cyclic phosphodiesterase 3A (Homo sapiens, UniProt Q14432); format: functional
[7] = target: T5, Muscarinic acetylcholine receptor M2 (Homo sapiens, UniProt P08172)
T5 sequence (P08172 whole entry): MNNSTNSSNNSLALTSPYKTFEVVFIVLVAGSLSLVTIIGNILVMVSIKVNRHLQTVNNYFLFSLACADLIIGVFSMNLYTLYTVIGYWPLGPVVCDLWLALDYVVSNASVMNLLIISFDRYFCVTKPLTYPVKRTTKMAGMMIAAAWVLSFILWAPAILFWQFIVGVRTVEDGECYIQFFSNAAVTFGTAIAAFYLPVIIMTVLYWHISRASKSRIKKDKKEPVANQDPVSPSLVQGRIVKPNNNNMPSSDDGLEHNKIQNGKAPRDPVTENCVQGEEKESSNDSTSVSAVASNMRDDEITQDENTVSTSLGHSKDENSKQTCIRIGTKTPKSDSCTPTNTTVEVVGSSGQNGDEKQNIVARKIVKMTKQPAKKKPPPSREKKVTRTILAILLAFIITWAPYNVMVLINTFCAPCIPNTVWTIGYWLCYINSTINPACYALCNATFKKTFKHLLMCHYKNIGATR

[8] = target: 5-hydroxytryptamine receptor 2B (Homo sapiens, UniProt P41595); format: functional, cell-based
Further: assay procedure not described here.

Chain of Mu-type opioid receptor (P35372 whole entry): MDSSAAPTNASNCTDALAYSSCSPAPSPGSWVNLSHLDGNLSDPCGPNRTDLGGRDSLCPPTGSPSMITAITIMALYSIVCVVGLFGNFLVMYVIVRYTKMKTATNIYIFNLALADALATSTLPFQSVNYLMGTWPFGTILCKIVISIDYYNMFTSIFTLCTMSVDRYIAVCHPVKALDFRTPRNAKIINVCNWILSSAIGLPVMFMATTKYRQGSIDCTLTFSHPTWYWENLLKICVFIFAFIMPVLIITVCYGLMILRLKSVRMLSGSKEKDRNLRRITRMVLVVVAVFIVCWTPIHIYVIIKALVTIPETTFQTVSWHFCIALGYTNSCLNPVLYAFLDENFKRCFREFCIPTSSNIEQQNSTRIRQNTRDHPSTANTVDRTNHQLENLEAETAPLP
Chain of Voltage-gated inwardly rectifying potassium channel KCNH2 (Q12809 whole entry): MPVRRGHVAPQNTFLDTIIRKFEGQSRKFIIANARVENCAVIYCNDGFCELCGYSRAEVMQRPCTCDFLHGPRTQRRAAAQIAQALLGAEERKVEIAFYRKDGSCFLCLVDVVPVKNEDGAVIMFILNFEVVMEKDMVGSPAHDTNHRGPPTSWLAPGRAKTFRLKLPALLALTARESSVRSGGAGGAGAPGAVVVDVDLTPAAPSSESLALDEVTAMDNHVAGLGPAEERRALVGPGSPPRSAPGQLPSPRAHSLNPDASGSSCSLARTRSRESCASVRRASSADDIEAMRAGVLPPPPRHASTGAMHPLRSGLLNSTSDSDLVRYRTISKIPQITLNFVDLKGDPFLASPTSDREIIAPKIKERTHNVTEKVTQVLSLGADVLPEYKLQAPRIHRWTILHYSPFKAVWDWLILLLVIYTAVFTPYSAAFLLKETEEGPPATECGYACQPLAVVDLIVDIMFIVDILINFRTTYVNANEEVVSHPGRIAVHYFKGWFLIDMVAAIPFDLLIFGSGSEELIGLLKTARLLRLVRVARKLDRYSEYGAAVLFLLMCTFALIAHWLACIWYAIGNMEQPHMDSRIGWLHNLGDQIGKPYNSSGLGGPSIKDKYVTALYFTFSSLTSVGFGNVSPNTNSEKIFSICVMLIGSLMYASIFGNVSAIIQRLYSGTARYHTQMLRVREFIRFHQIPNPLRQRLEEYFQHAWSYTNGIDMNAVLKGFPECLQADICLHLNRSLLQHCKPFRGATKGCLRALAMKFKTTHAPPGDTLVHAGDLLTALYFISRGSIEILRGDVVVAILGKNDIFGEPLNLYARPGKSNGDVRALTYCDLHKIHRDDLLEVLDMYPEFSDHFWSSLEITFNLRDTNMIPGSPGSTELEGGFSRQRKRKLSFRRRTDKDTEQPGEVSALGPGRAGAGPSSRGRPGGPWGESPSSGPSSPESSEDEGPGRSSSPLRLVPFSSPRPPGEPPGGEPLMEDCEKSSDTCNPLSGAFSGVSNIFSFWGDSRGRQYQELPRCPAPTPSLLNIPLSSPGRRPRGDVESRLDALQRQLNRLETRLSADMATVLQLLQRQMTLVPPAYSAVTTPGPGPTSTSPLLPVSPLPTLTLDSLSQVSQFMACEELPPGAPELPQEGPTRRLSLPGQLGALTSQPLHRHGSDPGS
Chain of Prostaglandin G/H synthase 1 (P23219 whole entry): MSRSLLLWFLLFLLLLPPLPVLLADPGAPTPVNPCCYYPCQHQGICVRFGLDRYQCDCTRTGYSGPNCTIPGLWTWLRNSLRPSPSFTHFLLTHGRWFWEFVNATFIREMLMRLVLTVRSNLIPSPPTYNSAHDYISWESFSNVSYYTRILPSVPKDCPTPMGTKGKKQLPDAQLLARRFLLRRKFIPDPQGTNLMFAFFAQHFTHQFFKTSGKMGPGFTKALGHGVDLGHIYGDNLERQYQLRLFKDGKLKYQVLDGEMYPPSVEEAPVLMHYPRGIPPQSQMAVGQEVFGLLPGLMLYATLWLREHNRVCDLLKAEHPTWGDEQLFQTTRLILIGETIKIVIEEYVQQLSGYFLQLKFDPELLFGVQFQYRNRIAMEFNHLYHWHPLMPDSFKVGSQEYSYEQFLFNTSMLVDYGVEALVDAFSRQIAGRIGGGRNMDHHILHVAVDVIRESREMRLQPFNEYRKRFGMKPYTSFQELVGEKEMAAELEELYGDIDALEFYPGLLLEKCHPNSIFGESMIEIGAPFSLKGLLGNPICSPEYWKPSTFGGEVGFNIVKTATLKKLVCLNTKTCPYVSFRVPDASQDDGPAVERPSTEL
Chain of Histamine H3 receptor (Q9Y5N1 whole entry): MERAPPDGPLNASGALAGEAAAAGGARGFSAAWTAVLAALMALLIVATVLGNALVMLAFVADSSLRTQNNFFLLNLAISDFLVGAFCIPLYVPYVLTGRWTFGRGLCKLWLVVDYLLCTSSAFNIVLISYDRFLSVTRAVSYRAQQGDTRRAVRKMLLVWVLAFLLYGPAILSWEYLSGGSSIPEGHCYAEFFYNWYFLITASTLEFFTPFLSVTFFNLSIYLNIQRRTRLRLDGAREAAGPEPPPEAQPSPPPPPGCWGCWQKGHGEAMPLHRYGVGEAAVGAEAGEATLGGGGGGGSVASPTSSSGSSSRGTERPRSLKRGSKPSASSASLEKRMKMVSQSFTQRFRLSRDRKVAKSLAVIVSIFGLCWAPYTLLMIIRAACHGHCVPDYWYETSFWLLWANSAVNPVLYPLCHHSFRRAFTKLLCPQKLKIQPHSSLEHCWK
Chain of cGMP-inhibited 3',5'-cyclic phosphodiesterase 3A (Q14432 whole entry): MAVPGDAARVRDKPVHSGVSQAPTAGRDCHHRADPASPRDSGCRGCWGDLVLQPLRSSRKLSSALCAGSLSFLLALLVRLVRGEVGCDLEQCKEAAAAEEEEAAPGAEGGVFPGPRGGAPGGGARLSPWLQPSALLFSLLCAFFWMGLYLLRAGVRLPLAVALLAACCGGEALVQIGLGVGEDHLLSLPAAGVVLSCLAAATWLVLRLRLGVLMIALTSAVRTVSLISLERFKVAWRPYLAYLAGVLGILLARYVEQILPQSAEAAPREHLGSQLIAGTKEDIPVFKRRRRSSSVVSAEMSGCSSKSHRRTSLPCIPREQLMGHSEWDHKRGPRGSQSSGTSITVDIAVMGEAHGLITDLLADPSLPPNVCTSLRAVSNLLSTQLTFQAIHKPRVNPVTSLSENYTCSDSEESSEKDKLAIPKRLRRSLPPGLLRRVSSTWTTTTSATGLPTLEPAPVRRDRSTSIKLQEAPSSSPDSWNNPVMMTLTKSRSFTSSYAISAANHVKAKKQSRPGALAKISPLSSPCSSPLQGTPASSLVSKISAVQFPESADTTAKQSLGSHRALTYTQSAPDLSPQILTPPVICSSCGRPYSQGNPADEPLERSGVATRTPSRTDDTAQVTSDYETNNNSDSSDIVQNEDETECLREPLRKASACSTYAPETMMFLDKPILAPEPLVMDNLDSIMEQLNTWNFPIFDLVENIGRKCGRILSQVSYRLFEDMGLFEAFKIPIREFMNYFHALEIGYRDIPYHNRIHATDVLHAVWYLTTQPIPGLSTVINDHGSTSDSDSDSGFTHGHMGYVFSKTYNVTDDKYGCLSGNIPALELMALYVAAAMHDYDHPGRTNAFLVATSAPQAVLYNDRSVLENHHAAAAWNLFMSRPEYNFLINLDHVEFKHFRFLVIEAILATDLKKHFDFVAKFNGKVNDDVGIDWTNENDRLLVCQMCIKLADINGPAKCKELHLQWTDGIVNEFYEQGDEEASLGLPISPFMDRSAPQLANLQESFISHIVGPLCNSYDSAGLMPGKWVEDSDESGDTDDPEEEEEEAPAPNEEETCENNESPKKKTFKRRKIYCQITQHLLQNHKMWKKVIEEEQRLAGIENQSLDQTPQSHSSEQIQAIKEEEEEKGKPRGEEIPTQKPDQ
Chain of D(1A) dopamine receptor (P21728 whole entry): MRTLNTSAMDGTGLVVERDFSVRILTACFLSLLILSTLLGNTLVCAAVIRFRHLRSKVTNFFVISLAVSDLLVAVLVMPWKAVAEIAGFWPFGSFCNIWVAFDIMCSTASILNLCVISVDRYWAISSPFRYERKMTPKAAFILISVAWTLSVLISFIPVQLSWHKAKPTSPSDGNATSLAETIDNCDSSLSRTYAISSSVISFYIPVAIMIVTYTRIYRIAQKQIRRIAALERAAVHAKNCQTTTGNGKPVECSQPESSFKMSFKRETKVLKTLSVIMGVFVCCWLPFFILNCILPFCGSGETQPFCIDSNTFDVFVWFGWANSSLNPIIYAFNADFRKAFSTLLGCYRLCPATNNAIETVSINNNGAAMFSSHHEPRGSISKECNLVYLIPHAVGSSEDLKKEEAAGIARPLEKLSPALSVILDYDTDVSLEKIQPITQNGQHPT
Chain of 5-hydroxytryptamine receptor 2B (P41595 whole entry): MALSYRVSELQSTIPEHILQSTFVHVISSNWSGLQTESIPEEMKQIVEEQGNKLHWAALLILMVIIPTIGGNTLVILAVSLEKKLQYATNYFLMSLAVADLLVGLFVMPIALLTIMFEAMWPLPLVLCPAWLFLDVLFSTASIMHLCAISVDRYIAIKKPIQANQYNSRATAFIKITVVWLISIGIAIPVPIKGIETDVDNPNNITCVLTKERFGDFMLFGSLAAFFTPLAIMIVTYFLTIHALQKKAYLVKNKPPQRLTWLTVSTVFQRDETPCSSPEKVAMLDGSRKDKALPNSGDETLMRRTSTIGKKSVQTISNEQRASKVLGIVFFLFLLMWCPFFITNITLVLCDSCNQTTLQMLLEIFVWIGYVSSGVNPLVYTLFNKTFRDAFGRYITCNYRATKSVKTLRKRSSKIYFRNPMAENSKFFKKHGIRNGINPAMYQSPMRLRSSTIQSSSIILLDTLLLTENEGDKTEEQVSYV

SMILES | AC50 [1] | AC50 (Histamine H3 receptor) | AC50 (D(1A) dopamine receptor) | AC50 [2] | AC50 [3] | AC50 [4] | AC50 (Prothrombin) | AC50 [5] | AC50 (Estrogen receptor) | AC50 (Mu-type opioid receptor) | AC50 [6] | AC50 [7] | AC50 [8]
N/N=c1/cc2c(n[nH]1)CCN(C(=O)c1ccccc1)C2 [ENDRALAZINE] | > 30 µM | > 30 µM | > 30 µM | > 30 µM | > 30 µM | > 30 µM | > 30 µM | 22.3 µM | > 30 µM | > 30 µM | > 30 µM | > 30 µM | > 30 µM
CCOC(=O)C(c1c(O)c2ccccc2oc1=O)c1c(O)c2ccccc2oc1=O [ETHYL BISCOUMACETATE] | > 30 µM | > 30 µM | > 30 µM | > 30 µM | > 30 µM | > 30 µM | > 30 µM | > 30 µM | > 30 µM | > 30 µM | > 30 µM | > 30 µM | > 30 µM
Cc1nc(-c2ccc(OCC(C)C)c(C#N)c2)sc1C(=O)O [FEBUXOSTAT] | > 30 µM | > 30 µM | > 30 µM | > 30 µM | > 30 µM | > 30 µM | > 30 µM | > 30 µM | > 30 µM | > 30 µM | > 30 µM | > 30 µM | > 30 µM
O=C1NCC2(CCN(CCc3ccccc3)CC2)O1 [FENSPIRIDE] | > 30 µM | > 30 µM | 20.8 µM | 8.2 µM | > 30 µM | > 30 µM | > 30 µM | > 30 µM | > 30 µM | > 30 µM | > 30 µM | 16.4 µM | > 30 µM
C[C@@H]1C[C@H]2[C@@H]3C[C@H](F)C4=CC(=O)C=C[C@]4(C)[C@@]3(F)[C@@H](O)C[C@]2(C)[C@@]1(O)C(=O)COC(=O)C(C)(C)C [FLUMETHASONE PIVALATE] | > 30 µM | > 30 µM | > 30 µM | > 30 µM | > 30 µM | > 30 µM | > 30 µM | > 30 µM | > 30 µM | > 30 µM | > 30 µM | > 30 µM | > 30 µM
C[C@@H]1C[C@H]2[C@@H]3C[C@H](F)C4=CC(=O)C(Cl)=C[C@]4(C)[C@@]3(F)[C@@H](O)C[C@]2(C)[C@@]1(O)C(=O)CO [HALOMETASONE] | > 30 µM | > 30 µM | > 30 µM | > 30 µM | > 30 µM | > 30 µM | > 30 µM | > 30 µM | > 30 µM | > 30 µM | > 30 µM | > 30 µM | > 30 µM
CC/C=C\C/C=C\C/C=C\C/C=C\C/C=C\CCCC(=O)O [ICOSAPENT] | > 30 µM | > 30 µM | > 30 µM | > 30 µM | > 30 µM | > 30 µM | > 30 µM | 9.84 µM | > 30 µM | > 30 µM | > 30 µM | > 30 µM | > 30 µM
Oc1c(I)cc(I)c2cccnc12 [IODOQUINOL] | > 30 µM | > 30 µM | > 30 µM | > 30 µM | > 10 µM | > 30 µM | > 30 µM | > 30 µM | > 30 µM | 8.91 µM | 3.36 µM | > 10 µM | > 30 µM
CCC(Cc1c(I)cc(I)c(N)c1I)C(=O)O (centres undefined) [IOPANOIC ACID] | > 30 µM | > 30 µM | > 30 µM | > 30 µM | > 30 µM | > 30 µM | > 30 µM | > 30 µM | > 30 µM | > 30 µM | > 30 µM | > 30 µM | > 30 µM
O=C(NC1CCN(CCCCC2(C(=O)NCC(F)(F)F)c3ccccc3-c3ccccc32)CC1)c1ccccc1-c1ccc(C(F)(F)F)cc1 [LOMITAPIDE] | 0.86 µM | > 30 µM | 1.49 µM | 13.2 µM | > 30 µM | > 30 µM | > 30 µM | > 30 µM | > 30 µM | 4.02 µM | > 30 µM | 22.6 µM | > 30 µM
CCN(CC)CCNc1ccc(C)c2sc3ccccc3c(=O)c12 [LUCANTHONE] | 1.3 µM | 10.5 µM | 6.04 µM | 5.65 µM | 0.523 µM | 16.3 µM | > 30 µM | > 30 µM | > 30 µM | 11.8 µM | > 30 µM | 2.36 µM | > 30 µM
CCOC(=O)CC(SP(=S)(OC)OC)C(=O)OCC (centres undefined) [MALATHION] | > 30 µM | > 30 µM | > 30 µM | > 30 µM | > 30 µM | > 30 µM | > 30 µM | > 30 µM | > 30 µM | > 30 µM | > 30 µM | > 30 µM | > 30 µM
CN1C(=O)N(C)C2C1N(C)C(=O)N2C (centres undefined) [MEBICAR] | > 30 µM | > 30 µM | > 30 µM | > 30 µM | > 30 µM | > 30 µM | > 30 µM | > 30 µM | > 30 µM | > 30 µM | > 30 µM | > 30 µM | > 30 µM
